The source of these data is PubChem BioAssay AID588401 (Johns Hopkins Ion Channel Center, 2011).

Calls of active or inactive are those of the source.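 The calls were made as follows: active = blocks the choline transporter at some tested dose and yields a fitted dose response curve; inconclusive = no clear call, values can overlap the other calls; inactive = no blocking at any dose or no curve.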

A word on the IC50: it is the concentration at which inhibition is half-maximal.

The target of the first assay is High affinity choline transporter 1 (Homo sapiens) (UniProt Q9GZV3). Description: CHT inhibitors, dose response, cell-based, 10-point CRC, membrane potential dye (AID 588401). As to conditions: HEK293-CHT, choline-induced depolarization, at 25 µM (top of the series).
Sequence of High affinity choline transporter 1 (Homo sapiens) (Q9GZV3 whole entry, looked up): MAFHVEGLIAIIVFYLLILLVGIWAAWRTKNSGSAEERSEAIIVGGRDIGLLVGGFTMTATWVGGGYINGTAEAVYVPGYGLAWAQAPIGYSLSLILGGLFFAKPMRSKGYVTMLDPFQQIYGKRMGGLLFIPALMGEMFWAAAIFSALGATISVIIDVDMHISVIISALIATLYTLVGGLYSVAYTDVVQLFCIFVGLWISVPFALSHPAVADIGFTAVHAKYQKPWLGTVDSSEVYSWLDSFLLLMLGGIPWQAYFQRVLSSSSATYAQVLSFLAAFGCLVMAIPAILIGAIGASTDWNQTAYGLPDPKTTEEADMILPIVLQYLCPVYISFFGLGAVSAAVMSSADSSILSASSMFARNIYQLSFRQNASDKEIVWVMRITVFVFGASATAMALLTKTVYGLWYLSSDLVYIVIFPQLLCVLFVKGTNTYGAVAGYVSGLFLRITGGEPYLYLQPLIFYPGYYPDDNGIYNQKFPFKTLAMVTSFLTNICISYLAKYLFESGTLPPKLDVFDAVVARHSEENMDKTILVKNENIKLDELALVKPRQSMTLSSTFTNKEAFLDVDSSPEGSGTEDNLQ
For the compound `C=CCn1c(O)c(C(CC)=NC(C)c2ccccc2)c(=O)[nH]c1=O` (stereo not drawn), the “inhibition (negative values = inhibition)” value (from here on “inhibition”) is “inactive”.

The same assay, now with this note: HEK293-CHT, choline-induced depolarization, at 25 µM (top of the series), cells express LV-AA mutant CHT.
On to `NC(=S)N/N=C1/CCSc2ccc3ccccc3c21`, for which the “inhibition” value was “inactive”. With `CCOC(=O)c1c(NC(=O)C2C3C=CC(C3)C2C(=O)O)sc2c1CCC(CC)C2` (stereo not drawn), the “inhibition” value is “inactive”.

For `COc1ccccc1Nc1nnc(SCC2CCCCO2)s1` (stereo not drawn), the “inhibition” value was “inactive”. Take `Cc1ccccc1-n1c(C)cc(/C=N/NC(=O)c2ccc(CN3CCOCC3)cc2)c1C`: the “inhibition” value is “inactive”. As to `COc1cc2c(cc1OC)-c1cc(NC3CCCCCCC3)nc(=O)n1CC2`, the “inhibition” value is “inactive”. Still for that read-out and setting: in the case of `Cc1ccc(C(=O)NC2CCCCC2)cc1S(=O)(=O)N1CCCC1` it was “inactive”; in that of `Fc1ccc(NC(=S)Nc2ccc(F)c(Cl)c2)cc1Cl`, “inactive”; in that of `O=C1ON=C(c2ccccc2)/C1=C/c1ccc(O)c(O)c1`, “inactive”. On the same count and under the same terms, in the case of `Cc1noc(NS(=O)(=O)c2ccc(NC(=O)COc3ccc(Cl)cc3Cl)cc2)c1C` it was “inactive”.

Regarding `O=C(NC1CCCCC1)C(c1ccc2ncccc2c1)N(Cc1ccccc1)C(=O)c1ccc2c(c1)OCCO2` (stereo not drawn), the “inhibition” value was “inactive”. Consider `N#CC(C#N)=C(Nc1ccc(F)cc1)SCc1cccc(F)c1`, for which the “inhibition” value is “inactive”.

As for `CN(CCC#N)C(=O)COC(=O)c1ccccc1C(=O)c1ccc(Cl)c([N+](=O)[O-])c1`, the “inhibition” value is “inactive”. Take `COc1cc(/C=C2/C(=O)c3cccc([N+](=O)[O-])c3C2=O)c(Br)cc1O`: the “inhibition” value was “inactive”. Regarding `Cc1ccc(-n2cc(CN3CCN(Cc4nccn4C)CC3)c(-c3ccc(F)cc3)n2)cc1`, the “inhibition” value was “inactive”. Consider `Cc1cc(OC(C)C(=O)Nc2ccc(S(=O)(=O)Nc3onc(C)c3C)cc2)cc(C)c1Cl` (stereo not drawn), for which the “inhibition” value was “inactive”. On the same count and under the same terms, in the case of `CCCn1nc2cc(C(=O)NCc3ccc(C)cc3)ccc2c1OCC` it was “inactive”; in that of `CCOC(=O)N1CCC(NC(=O)C2CCCN(Cc3nc(-c4cccc(Cl)c4)oc3C)C2)CC1` (stereo not drawn), “inactive”. With `Cn1c(-c2sc3ccccc3c2Cl)n[nH]c1=S`, the “inhibition” value was “inactive”. Take `c1ccc(CN2CCN(c3nc4ccccc4n4cnnc34)CC2)cc1`: the “inhibition” value was “inactive”. As for `CCc1cc2c(NCc3ccco3)ncnc2s1`, the “inhibition” value was “inactive”. Take `CC(C)(C)S(=O)(=O)/C(C#N)=N/Nc1ccc(Cl)cc1`: the “inhibition” value was “inactive”. Take `C=C(C)CSc1nnc(CCCCCNC(=O)OC(C)(C)C)o1`: the “inhibition” value was “inactive”. On to `Cc1ccc(C(=O)CSc2nnc(-c3ccco3)n2C)cc1`, for which the “inhibition” value was “inactive”. As for `CCN1CCn2c3c(c4cc(Cl)ccc42)CCCC31` (stereo not drawn), the “inhibition” value is “inactive”.

For the compound `COc1cccc(OC)c1OCCCCCc1c(C)n[nH]c1C`, the “inhibition” value is “inactive”. Turning to `Cc1cc(-c2ccccc2)n(-c2ccc(C(=O)N3CCN(c4ncccn4)CC3)cc2)n1`, the “inhibition” value was “inactive”. Turning to `CC1CCCCC1NC(=O)Cn1nnc(-c2ccc(Cl)cc2)n1` (stereo not drawn), the “inhibition” value was “inactive”. Take `C/C(=N/NC(=O)c1cc(Cl)ccc1O)C12CC3CC(CC(C3)C1)C2`: the “inhibition” value is “inactive”. For `COc1ccc(OC)c(/C=C2\SC(=S)N(NS(=O)(=O)c3ccccc3)C2=O)c1`, the “inhibition” value is “inactive”.

On to `Cc1ccc(N2NC(=O)/C(=C\c3cc4c(cc3[N+](=O)[O-])OCO4)C2=O)cc1C`, for which the “inhibition” value was “inactive”. For the compound `COCCCNC(=O)c1ccc(OC)c(OC2CCN(C(C)C)CC2)c1`, the “inhibition” value is “inactive”.

For `COc1ccc(C(C(=O)NC2CCCCC2)N(C(=O)c2ccco2)c2ccccc2C(C)=O)cc1OC` (stereo not drawn), the “inhibition” value is “inactive”.

Take `O=C(Nc1ccccc1C(=O)NCCCN1CCOCC1)c1ccc(F)cc1`: the “inhibition” value is “inactive”. On to `CCCN(CCC)c1nc(N(CCC)CCC)[nH]c(=O)n1`, for which the “inhibition” value is “inactive”. For the compound `Oc1c(Cl)cc(Cl)cc1C=Nc1ccc2c(c1)OCCO2`, the “inhibition” value was “inactive”. In the case of `O=C(COC(=O)CCCSc1nc2ccccc2[nH]1)NC(=O)NC1CCCC1`, the “inhibition” value was “inactive”. Turning to `COc1ccc(C2=Nn3c(nnc3C3CCCCC3)SC2)cc1OC`, the “inhibition” value is “inactive”. `Cc1csc(NC(=O)CSc2nc(C(C)C)nc3ccccc23)n1`: the “inhibition” value is “inactive”.

In the case of `c1ccc(CCNc2c3c(nc4ncnn24)CCC3)cc1`, the “inhibition” value is “inactive”. As for `COc1cc(NC(=O)c2csc(-c3ccncc3)n2)cc(C(=O)Nc2cccc(C(F)(F)F)c2)c1`, the “inhibition” value was “inactive”.

As for `CCOC(=O)C1CCN(Cc2c(O)c3ccccc3oc2=O)CC1`, the “inhibition” value is “inactive”.

Regarding `Cc1cccc(C(=O)NNC(=S)NC(=O)c2ccccc2)c1`, the “inhibition” value was “inactive”.

Regarding `O=C(O)C1CCN(c2nc(-c3ccccc3)nc3c2oc2ccccc23)CC1`, the “inhibition” value was “inactive”.

As to `O=S(=O)(c1ccccc1F)N1CCN(CCc2ccccc2)CC1`, the “inhibition” value is “inactive”. Same read-out and setting: in the case of `CCc1ccc2oc(C(=O)NCC(c3ccc(OC)cc3)N3CCCCC3)c(C)c2c1` (stereo not drawn) it was “inactive”. For `CCOCCCNC(=O)/C(C#N)=C/c1ccc([N+](=O)[O-])o1`, the “inhibition” value is “inactive”.

`O=C(CSc1nnc(-c2ccncc2)n1Cc1ccco1)c1ccc(Cl)cc1`: the “inhibition” value was “inactive”. As for `O=[N+]([O-])c1ccc(S(=O)(=O)Nc2nc(-c3ccccc3)cs2)cc1`, the “inhibition” value is “inactive”. For the compound `Cc1nn(-c2ccccc2)c2[nH]c(=O)cc(C(F)(F)F)c12`, the “inhibition” value is “inactive”.

With `COc1ccc(C/C(O)=C(\C#N)c2nc3ccccc3s2)cc1`, the “inhibition” value was “inactive”. For the compound `CCOc1ccc(/C=C2\SC(=S)N(NS(=O)(=O)c3ccccc3)C2=O)cc1OC`, the “inhibition” value is “inactive”. Regarding `COc1cc(CNc2ccc(N3CCCCC3)cc2)ccc1OCC(=O)NC(C)(C)C`, the “inhibition” value is “inactive”. On the same count and under the same terms, the entry for `CCOC(=O)c1sc(NC(=O)CCN2C(=O)c3cccc([N+](=O)[O-])c3C2=O)c(C(=O)OCC)c1C` is “inactive”. With `Cc1ccc(-c2cccc(CN3CCN(C(C)C)C(CCO)C3)c2)o1` (stereo not drawn), the “inhibition” value is “inactive”. `CN(C)CCCn1c(=O)n(C2CCCCC2)c(=O)c2c3c(sc21)CCCCC3`: the “inhibition” value was “inactive”.

Still in this assay, the particulars now being: HEK293-CHT, choline-induced depolarization, cells express LV-AA mutant CHT.
Take `CCCn1nc(NS(=O)(=O)c2cccc3nonc23)c2cc3cccc(C)c3nc21`: the IC50 was 3.55 µM.

As to `CC(C)c1nnc(NC(=O)c2nc(S(=O)(=O)Cc3ccccc3)ncc2Cl)s1`, the IC50 is 4.47 µM.
